# Reference: ChEMBL document CHEMBL2163249, “Exploration of natural compounds as sources of new bifunctional scaffolds targeting cholinesterases and beta amyloid aggregation: the case of chelerythrine” (Bioorg Med Chem, 2012)
# Legend:
# [1] = target: Cholinesterase (Equus caballus) (UniProt P81908); details: at 2 mg/mL
# Description: Inhibition of horse BChE at 2 mg/ml by Ellman's method
# Acetylcholinesterase [2] = target: T1, Acetylcholinesterase (Electrophorus electricus, UniProt O42275); test: Uncompetitive inhibition of electric eel AChE using acetyl thiocholine iodide as substrate by Lineweaver-Burk double-reciprocal analysis
# T1 sequence (O42275 whole entry): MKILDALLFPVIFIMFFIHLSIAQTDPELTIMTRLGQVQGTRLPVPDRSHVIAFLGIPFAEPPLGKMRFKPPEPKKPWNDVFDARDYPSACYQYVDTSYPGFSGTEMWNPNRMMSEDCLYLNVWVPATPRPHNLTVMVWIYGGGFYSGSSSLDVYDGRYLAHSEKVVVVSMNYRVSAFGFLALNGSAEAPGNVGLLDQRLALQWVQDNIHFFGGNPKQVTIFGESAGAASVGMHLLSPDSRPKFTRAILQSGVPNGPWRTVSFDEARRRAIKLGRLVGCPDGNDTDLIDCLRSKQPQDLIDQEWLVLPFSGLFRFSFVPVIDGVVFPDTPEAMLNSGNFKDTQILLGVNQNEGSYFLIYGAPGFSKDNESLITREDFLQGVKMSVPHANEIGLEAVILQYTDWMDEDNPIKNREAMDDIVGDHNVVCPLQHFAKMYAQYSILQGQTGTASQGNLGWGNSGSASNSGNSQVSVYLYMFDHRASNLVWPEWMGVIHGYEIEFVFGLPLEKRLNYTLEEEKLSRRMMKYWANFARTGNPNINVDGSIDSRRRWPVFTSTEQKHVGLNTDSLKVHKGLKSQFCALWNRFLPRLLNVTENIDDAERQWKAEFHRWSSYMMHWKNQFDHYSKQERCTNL
# [3] = Inhibition of HFIP-induced amyloid beta (1 to 40) aggregation after 45 mins by thioflavin T fluorescence method
# Acetylcholinesterase [4] = target: T2, Acetylcholinesterase (Homo sapiens, UniProt P22303); test: Competitive inhibition of human AChE using acetyl thiocholine iodide as substrate by Lineweaver-Burk double-reciprocal analysis
# T2 sequence (P22303 whole entry): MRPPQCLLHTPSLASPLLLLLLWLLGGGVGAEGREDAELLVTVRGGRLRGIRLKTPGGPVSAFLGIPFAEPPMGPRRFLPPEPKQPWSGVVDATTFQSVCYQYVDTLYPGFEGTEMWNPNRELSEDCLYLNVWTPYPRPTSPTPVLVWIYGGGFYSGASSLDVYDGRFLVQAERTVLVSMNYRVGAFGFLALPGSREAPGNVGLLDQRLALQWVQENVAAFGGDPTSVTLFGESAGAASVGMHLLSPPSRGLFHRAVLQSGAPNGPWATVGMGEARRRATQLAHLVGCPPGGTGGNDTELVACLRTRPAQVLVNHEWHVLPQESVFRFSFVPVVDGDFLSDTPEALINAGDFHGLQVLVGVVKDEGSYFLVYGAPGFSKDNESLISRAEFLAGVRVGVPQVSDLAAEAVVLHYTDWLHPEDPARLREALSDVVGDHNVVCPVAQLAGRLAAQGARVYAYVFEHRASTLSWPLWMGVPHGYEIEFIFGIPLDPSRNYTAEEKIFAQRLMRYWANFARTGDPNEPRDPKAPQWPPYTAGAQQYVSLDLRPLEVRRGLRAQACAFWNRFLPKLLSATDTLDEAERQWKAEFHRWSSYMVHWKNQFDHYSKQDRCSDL
# Cholinesterase [5] = target: Cholinesterase (Equus caballus, UniProt P81908); test: Inhibition of horse BChE by Ellman's method
# Sequence of Cholinesterase (Equus caballus, UniProt P81908) (P81908 whole entry): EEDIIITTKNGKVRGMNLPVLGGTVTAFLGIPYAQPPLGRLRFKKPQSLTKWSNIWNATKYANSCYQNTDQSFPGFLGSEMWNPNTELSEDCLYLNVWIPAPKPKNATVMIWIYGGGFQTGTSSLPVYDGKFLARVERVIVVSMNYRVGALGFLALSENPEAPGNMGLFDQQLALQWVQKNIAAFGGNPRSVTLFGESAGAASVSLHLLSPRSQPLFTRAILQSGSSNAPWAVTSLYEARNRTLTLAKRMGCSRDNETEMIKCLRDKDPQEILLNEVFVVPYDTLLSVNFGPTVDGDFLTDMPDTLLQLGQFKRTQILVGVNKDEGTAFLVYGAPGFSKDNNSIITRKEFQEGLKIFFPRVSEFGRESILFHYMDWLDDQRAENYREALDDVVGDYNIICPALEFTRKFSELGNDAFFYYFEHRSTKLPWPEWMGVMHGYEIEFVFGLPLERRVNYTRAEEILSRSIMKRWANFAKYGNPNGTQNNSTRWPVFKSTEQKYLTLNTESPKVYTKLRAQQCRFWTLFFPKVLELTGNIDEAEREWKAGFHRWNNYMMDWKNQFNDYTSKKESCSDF
# Cholinesterase [6] = target: Cholinesterase (Homo sapiens, UniProt P06276); test: Inhibition of human BChE by Ellman's method; details: read-out: IC50
# Sequence of Cholinesterase (Homo sapiens, UniProt P06276) (P06276 whole entry): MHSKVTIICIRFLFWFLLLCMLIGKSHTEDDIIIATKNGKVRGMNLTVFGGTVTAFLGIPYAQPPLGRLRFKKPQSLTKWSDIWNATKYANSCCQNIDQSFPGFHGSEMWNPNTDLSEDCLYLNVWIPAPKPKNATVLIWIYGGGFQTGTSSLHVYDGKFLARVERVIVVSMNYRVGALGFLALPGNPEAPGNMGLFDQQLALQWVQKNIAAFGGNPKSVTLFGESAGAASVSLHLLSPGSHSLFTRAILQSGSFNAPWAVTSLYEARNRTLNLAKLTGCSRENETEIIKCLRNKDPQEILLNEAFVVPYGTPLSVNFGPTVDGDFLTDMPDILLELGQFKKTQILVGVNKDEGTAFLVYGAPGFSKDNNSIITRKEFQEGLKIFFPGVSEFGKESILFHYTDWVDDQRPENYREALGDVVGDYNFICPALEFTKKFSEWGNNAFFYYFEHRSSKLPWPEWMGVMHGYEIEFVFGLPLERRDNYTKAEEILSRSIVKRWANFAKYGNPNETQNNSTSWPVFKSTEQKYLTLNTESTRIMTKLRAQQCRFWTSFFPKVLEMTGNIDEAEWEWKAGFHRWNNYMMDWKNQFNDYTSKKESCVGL
# Acetylcholinesterase [7] = target: T2, Acetylcholinesterase
# Description: Inhibition of human AChE by Ellman's method
# Acetylcholinesterase [8] = target: T1, Acetylcholinesterase; test: Inhibition of electric eel AChE by Ellman's method
# Acetylcholinesterase [9] = target: T1, Acetylcholinesterase; test: Competitive inhibition of electric eel AChE using acetyl thiocholine iodide as substrate by Lineweaver-Burk double-reciprocal analysis
# [10] = target: Acetylcholinesterase (Electrophorus electricus) (UniProt O42275); details: at 2 mg/mL
# Sequence of Acetylcholinesterase (Electrophorus electricus) (O42275 24-633 limits assumed): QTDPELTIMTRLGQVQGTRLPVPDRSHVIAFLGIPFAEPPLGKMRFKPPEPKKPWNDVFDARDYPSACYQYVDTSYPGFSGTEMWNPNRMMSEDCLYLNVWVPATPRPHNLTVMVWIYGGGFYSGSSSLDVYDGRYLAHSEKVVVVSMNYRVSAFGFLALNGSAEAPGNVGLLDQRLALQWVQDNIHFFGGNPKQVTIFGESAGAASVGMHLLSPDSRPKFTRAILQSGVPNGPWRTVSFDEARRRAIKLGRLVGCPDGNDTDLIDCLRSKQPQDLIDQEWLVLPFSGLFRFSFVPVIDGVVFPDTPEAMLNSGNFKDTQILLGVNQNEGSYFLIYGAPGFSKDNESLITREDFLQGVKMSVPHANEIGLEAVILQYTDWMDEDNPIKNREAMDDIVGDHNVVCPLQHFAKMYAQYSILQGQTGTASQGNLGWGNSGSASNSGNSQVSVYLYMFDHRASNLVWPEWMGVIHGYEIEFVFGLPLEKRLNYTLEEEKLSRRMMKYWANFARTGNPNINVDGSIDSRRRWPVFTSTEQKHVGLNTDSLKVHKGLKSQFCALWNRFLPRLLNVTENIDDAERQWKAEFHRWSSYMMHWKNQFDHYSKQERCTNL
# Description: Inhibition of electric eel AChE at 2 mg/ml by Ellman's method
# Acetylcholinesterase [11] = target: T2, Acetylcholinesterase; test: Uncompetitive inhibition of human AChE using acetyl thiocholine iodide as substrate by Lineweaver-Burk double-reciprocal analysis
# [12] = Inhibition of amyloid beta (1 to 40) aggregation assessed as induction of disaggregation treated 45 mins after formation of aggregates by thioflavin T fluorescence method
# [13] = Inhibition of HFIP-induced amyloid beta (1 to 40) aggregation at 10 uM after 45 mins by thioflavin T fluorescence method
# [14] = Inhibition of HFIP-induced amyloid beta (1 to 40) aggregation at 250 uM after 45 mins by thioflavin T fluorescence method
# [15] = Inhibition of amyloid beta (1 to 42) aggregation
# [16] = Inhibition of HFIP-induced amyloid beta (1 to 40) aggregation at 20 uM after 45 mins by thioflavin T fluorescence method
# [17] = Inhibition of amyloid beta (1 to 40) aggregation assessed as induction of disaggregation at 100 uM treated 24 hrs after formation of aggregates by thioflavin T fluorescence method
# [18] = Inhibition of amyloid beta (1 to 40) aggregation assessed as induction of disaggregation at 10 uM treated 24 hrs after formation of aggregates by thioflavin T fluorescence method
# [19] = Inhibition of amyloid beta (1 to 40) aggregation assessed as induction of disaggregation at 100 uM treated 4 days after formation of aggregates by thioflavin T fluorescence method
# Sequence of Cholinesterase (Equus caballus) (P81908 whole entry): as the sequence (P81908 whole entry) above
SMILES,inhibition [1],IC50 (Cholinesterase [5]; read-out: IC50),IC50 (Cholinesterase [6]),inhibition [10],IC50 [12],IC50 (Acetylcholinesterase [8]),also measured
COc1ccc2c(c[n+](C)c3c4cc5c(cc4ccc23)OCO5)c1OC [CHELERYTHRINE CHLORIDE],83.5%,6.33 µM,10.3 µM,75.9%,13 µM,–,Ki (Acetylcholinesterase [2]): 0.92 µM; IC50 [3]: 4.2 µM; Ki (Acetylcholinesterase [4]): 0.32 µM; IC50 (Acetylcholinesterase [7]): 1.54 µM; IC50 (Acetylcholinesterase [8]; read-out: IC50): 3.78 µM; Ki (Acetylcholinesterase [9]): 0.48 µM; Ki (Acetylcholinesterase [11]): 1.12 µM; inhibition [13]: 67%
Cl.Cl.c1ccc2c3c([nH]c2c1)[C@H]1[C@H]2CC[C@H]([C@@H]4CCCN[C@@H]42)N1CC3,48.7%,10.6 µM,9.01 µM,20.5%,–,Not Active,–
COc1cc2c3cc1Oc1c(OO)c(OC)cc4c1[C@H](Cc1ccc(cc1)Oc1cc(ccc1O)C[C@H]3N(C)CC2)N(C)CC4.O=S(=O)(O)O [OXYACANTHINE SULFATE],66.3%,4.1 µM,1.89 µM,0.62%,–,Not Active,–
COC(=O)[C@H]1[C@H]2C[C@H]3c4[nH]c5ccccc5c4CCN3C[C@H]2CC[C@@H]1O.Cl [RAUWOLSCINE HYDROCHLORIDE],59.1%,8.38 µM,13.7 µM,12.4%,–,Not Active,–
Cc1c([C@H](C)[C@@H]2NC[C@@H](C)C[C@H]2O)ccc2c1C[C@H]1[C@H]2CC=C2C[C@@H](O)CC[C@@]21C [VERATRAMINE],66.2%,10.8 µM,19.5 µM,24.5%,–,Not Active,–
Nc1ccc(O)cc1,–,–,–,–,–,–,inhibition [14]: 64%
Oc1cccc2[nH]ccc12,–,–,–,–,–,–,IC50 [15]: 85 µM
COc1cc2c(cc1OC)-c1cc3ccc(OC)c(OC)c3c[n+]1CC2.O.[Cl-] [PALMATINE CHLORIDE HYDRATE],7.47%,–,–,72.6%,174 µM,–,IC50 [3]: 92.2 µM; IC50 (Cholinesterase [5]): Not Active; IC50 (Acetylcholinesterase [7]): 1.69 µM
COc1ccc2cc3[n+](cc2c1OC)CCc1cc2c(cc1-3)OCO2 [BERBERINE CHLORIDE],–,–,–,79%,106 µM,–,IC50 [3]: 43.8 µM; IC50 (Acetylcholinesterase [8]; read-out: IC50): 2.74 µM; inhibition [16]: 36%
Oc1ccc(/C=C/c2cc(O)cc(O)c2)cc1 [RESVERATROL],36.8%,–,–,15.1%,81.8 µM,–,inhibition [17]: 32%; inhibition [18]: 71%
CCC1=C[C@@H]2CN3CCc4c([nH]c5ccccc45)[C@@](C(=O)OC)(C2)[C@@H]13 [CATHARANTHINE BASE],75.2%,5.17 µM,3.17 µM,5.28%,–,Not Active,–
CC(C)=CCC[C@]1(C)[C@@H](CC=C(C)C)C[C@]2(CC=C(C)C)C(=O)C(CC=C(C)C)=C(O)[C@@]1(C(=O)C(C)C)C2=O,–,–,–,–,–,–,inhibition [19]: 20%
